Data as given in US7851490B2, “Benzimidazole derivatives and their use for modulating the GABAA receptor complex” (Neurosearch A/S, priority 2005, dated 2010).

Target: benzodiazepine binding site on GABAA receptors
Assay: In vitro inhibition of 3H-flunitrazepam (3H-FNM) binding
Parameters: species or system rat
Conditions: inhibition of specific binding of 3H-FNM (1 nM), cerebral cortex membranes from male Wistar rats, 40 min at 2° C.
Description: In Vitro Inhibition of ^3H-flunitrazepam (^3H-FNM) Binding
The GABA recognition site and the benzodiazepine modulatory unit can selectively be labelled with ^3H-flunitrazepam.
Preparations are performed at 0-4° C. unless otherwise indicated. Cerebral cortex from male Wistar rats (150-200 g) is homogenised for 5-10 sec in 20 ml Tris-HCl (30 mM, pH 7.4) using an Ultra-Turrax homogeniser. The suspension is centrifuged at 27,000×g for 15 min and the pellet is washed three times with buffer (centrifuged at 27,000×g for 10 min). The washed pellet is homogenized in 20 ml of buffer and incubated on a water bath (37° C.) for 30 min to remove endogenous GABA and then centrifuged for 10 min at 27,000×g. The pellet is then homogenized in buffer and centrifuged for 10 min at 27,000×g. The final pellet is resuspended in 30 ml buffer and the preparation is frozen and stored at −20° C.
The membrane preparation is thawed and centrifuged at 2° C. for 10 min at 27,000×g. The pellet is washed twice with 20 ml 50 mM Tris-citrate, pH 7.1 using an Ultra-Turrax homogeniser and centrifuged for 10 min at 27,000×g. The final pellet is resuspended in 50 mM Tris-citrate, pH 7.1 (500 ml buffer per g of original tissue), and then used for binding assays. Aliquots of 0.5 ml tissue are added to 25 μl of test solution and 25 μl of ^3H-FNM (1 nM, final concentration), mixed and incubated for 40 min at 2° C. Non-specific binding is determined using Clonazepam (1 μM, final concentration). After incubation the samples are added 5 ml of ice-cold buffer and poured directly onto Whatman GF/C glass fibre filters under suction and immediately washed with 5 ml ice-cold buffer. The amount of radioactivity on the filters is determined by conventional liquid scintillation counting. Specific binding is total binding minus non-specific binding.
25-75% inhibition of specific binding must be obtained, before calculation of an IC50.
The test value will be given as IC50 (the concentration (μM) of the test substance which inhibits the specific binding of ^3H-FNM by 50%). IC50=(applied test substance concentration, […]

SMILES | IC50 [nM]
NCc1ccc2c(c1)ncn2-c1cccc(-c2nccs2)c1 [C-[1-(3-Thiazol-2-yl-phenyl)-1H-benzoimidazol-5-yl]-methylamine] | 11
CC(=O)NCc1ccc2c(c1)ncn2-c1cccc(-c2nccs2)c1 [N-[1-(3-Thiazol-2-yl-phenyl)-1H-benzoimidazol-5-ylmethyl]-acetamide] | 24
O=CNCc1ccc2c(c1)ncn2-c1cccc(-c2nccs2)c1 [N-{1-[3-(Thiazol-2-yl)-phenyl]-1H-benzoimidazol-5-ylmethyl}-formamide] | 4.8
